Converted amounts (≈) assume the structure as drawn.
Tested on: Staphylococcus aureus
Experiment: Growth inhibition (MIC) in RPMI 1640, Staphylococcus aureus
Assay type: cell-based
Details: method of Example 6, read-out: MIC for S. aureus
Experimental: Chelating compositions were assessed for their biological activity in vitro by determination of their growth inhibitory activity for Staphylococcus aureus (strain 038, a clinical isolate from a corneal infection obtained from Dr. Mark Wilcox, University New South Wales, Australia or strain ATCC 43300, a prototypical clinical isolate and reference strain obtained from the American Type Culture Collection) and Candida albicans (SC5314, a prototypical clinical isolate and reference strain obtained from the American Type Culture Collection or strain 3969 a clinical isolate obtained from the Queen Elizabeth II hospital, Halifax, Canada). The microorganisms were grown in RPMI 1640 culture medium and tested in fresh aliquots of RPMI 1640 medium or in medium that had been partially deferrated by the method of Holbein and Mira (Holbein B. E, Mira de Orduña R. 2010, FEMS Microbiol Lett. 307(1):19-24, herein incorporated by reference) to allow testing at low Fe levels or with iron re-added at known concentrations to this deferrated medium. Growth at 30° C. was measured by optical density when the test samples were incubated in tubes or visually when growth was tested in microtitre dish wells. […]

- MIC: 125 µg/mL (≈ 529 µM)
Compound: C=C(C)C(=O)NCCn1ccc(=O)c(O)c1C [MAHMP, 3-hydroxy-1-(β-methacrylamidoethyl)-2-methyl-4(1H)-pyridinone]

Reference: patent US12024490B2, “Polymeric metal chelating compositions and methods of preparing same for controlling growth and activities of living cells and organisms for therapeutic use in treating diseases in animals, fish or humans” (CHELATION PARTNERS INCORPORATED, priority 2016, dated 2024)
